34 molecules from patent publication US20250340560A1, “SUBSTITUTED PYRAZOLO[1,5-a]PYRIMIDINES AS BRUTON'S TYROSINE KINASE MODULATORS” (BEIGENE SWITZERLAND GMBH, priority 2013, published 2025) can be followed below.

The IC50 is the concentration at which inhibition is half-maximal.

For the assay, the target named is Recombinant Btk (Homo sapiens (Human), UniProt Q06187). Kind of assay: BTK kinase assay (TR-FRET). As to conditions: read-out: IC50 (nM) Btk; 1 hour pre-incubation, ATP at Km. In general terms: In TR-FRET formats the signal depends on donor and acceptor labels being close together.
Sequence of Recombinant Btk (Q06187 whole entry): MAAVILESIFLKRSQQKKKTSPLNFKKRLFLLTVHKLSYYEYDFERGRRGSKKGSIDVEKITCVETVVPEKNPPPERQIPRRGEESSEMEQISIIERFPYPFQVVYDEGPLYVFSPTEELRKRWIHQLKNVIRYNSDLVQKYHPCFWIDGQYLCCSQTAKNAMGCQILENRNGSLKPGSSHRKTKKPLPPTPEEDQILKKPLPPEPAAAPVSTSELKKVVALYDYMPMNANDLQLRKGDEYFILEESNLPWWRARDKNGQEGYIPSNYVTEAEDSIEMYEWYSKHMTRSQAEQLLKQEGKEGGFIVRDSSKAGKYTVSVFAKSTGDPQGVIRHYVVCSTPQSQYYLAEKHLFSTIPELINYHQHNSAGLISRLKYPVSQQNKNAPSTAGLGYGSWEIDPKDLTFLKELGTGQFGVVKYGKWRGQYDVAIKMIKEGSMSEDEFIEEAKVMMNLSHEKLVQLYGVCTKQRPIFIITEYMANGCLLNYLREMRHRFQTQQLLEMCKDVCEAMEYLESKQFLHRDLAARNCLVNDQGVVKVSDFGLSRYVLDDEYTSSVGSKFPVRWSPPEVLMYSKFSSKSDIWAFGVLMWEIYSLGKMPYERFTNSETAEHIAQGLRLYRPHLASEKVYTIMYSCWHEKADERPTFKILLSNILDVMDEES

On to `NC(=O)c1c(-c2ccc(Oc3ccccc3)cc2)nn2c1NCCc1cc(N)ccc1-2` [Compound 71, 8-Amino-2-(4-phenoxyphenyl)-5,6-dihydro-4H-benzo[f]pyrazolo[1,5-a][1,3]diazepine-3-carboxamide], for which the IC50 worked out at 55 nM.
To `CN(C)C/C=C/C(=O)N1CCc2[nH]c3c(C(N)=O)c(-c4ccc(Oc5ccccc5)cc4)nn3c2CC1` [Compound 122] belongs 0.78 nM; to `C=CC(=O)Nc1cc(C2CCNc3c(C(N)=O)c(-c4ccc(Oc5ccccc5)cc4)nn32)ccc1Cl` (stereo not shown) [Compound 97, 7-(3-acrylamido-4-chlorophenyl)-2-(4-phenoxyphenyl)-4,5,6,7-tetrahydropyrazolo[1,5-a]pyrimidine-3-carboxamide], 1.1 nM.
Regarding `NC(=O)c1c(-c2ccc(Oc3ccccc3)cc2)nn2c1NCC21CNC1` [Compound 45, 6′-(4-Phenoxyphenyl)-1′,2′-dihydrospiro[azetidine-3,3′-imidazo[1,2-b]pyrazole]-7′-carboxamide], the IC50 was 510 nM.
As to `C=CC(=O)N1CCC(C2CCNc3c(C(N)=O)c(-c4ccc(C)c(OC)c4)nn32)CC1` (stereo not shown) [Compound 174, 7-(1-Acryloylpiperidin-4-yl)-2-(3-methoxy-4-methylphenyl)-4,5,6,7-tetrahydropyrazolo[1,5-a]pyrimidine-3-carboxamide], the IC50 turned out to be 4.8 nM.
To `NC(=O)c1c(-c2ccc(Oc3ccccc3)cc2)nn2c1NCCC2c1ccccn1` (stereo not shown) [Compound 102, 2-(4-phenoxyphenyl)-7-(pyridin-2-yl)-4,5,6,7-tetrahydropyrazolo[1,5-a]pyrimidine-3-carboxamide] belongs 830 nM.
For `C=CC(=O)N1CC(C2CCNc3c(C(N)=O)c(-c4ccc(Oc5ccc(Cl)c(Cl)c5)cc4)nn32)C1` (stereo not shown) [Compound 132, 7-(1-acryloylazetidin-3-yl)-2-(4-(3,4-dichlorophenoxy)phenyl)-4,5,6,7-tetrahydropyrazolo[1,5-a]pyrimidine-3-carboxamide] the value was 1.7 nM.
To `C=CC(=O)N1CC(C2(C)CCNc3c(C(N)=O)c(-c4ccc(Oc5ccccc5)cc4)nn32)C1` (stereo not shown) [Compound 175, 7-(1-Acryloylazetidin-3-yl)-7-methyl-2-(4-phenoxyphenyl)-4,5,6,7-tetrahydropyrazolo[1,5-a]pyrimidine-3-carboxamide] belongs 1.2 nM; to `NC(=O)c1c(-c2ccc(Oc3ccccc3)cc2)nn2c1NCC[C@H]2C1CCN(C(=O)C#CCO)CC1` [Compound 191, (S)-7-(1-(4-Hydroxybut-2-ynoyl)piperidin-4-yl)-2-(4-phenoxyphenyl)-4,5,6,7-tetrahydropyrazolo[1,5-a]pyrimidine-3-carboxamide], 0.67 nM.
Turning to `NC(=O)c1c(-c2ccc(Oc3ccccc3)cc2)nn2c1NCC[C@H]2C1CCN(C(=O)CCCl)CC1` [Compound 177, (S)-7-(1-(3-chloropropanoyl)piperidin-4-yl)-2-(4-phenoxyphenyl)-4,5,6,7-tetrahydropyrazolo[1,5-a]pyrimidine-3-carboxamide], the IC50 is 5.7 nM.
As for `NC(=O)c1c(-c2ccc(Oc3ccccc3)cc2)nn2c(-c3cccc(N)c3)ccnc12` [Compound 7, 7-(3-Aminophenyl)-2-(4-phenoxyphenyl)pyrazolo[1,5-a]pyrimidine-3-carboxamide], the IC50 is above 10000 nM.
Regarding `NCC1CCNc2c(C(N)=O)c(-c3ccc(OCC4CC4)cc3)nn21` (stereo not shown) [Compound 112, 7-(aminomethyl)-2-(4-(cyclopropylmethoxy)phenyl)-4,5,6,7-tetrahydropyrazolo[1,5-a]pyrimidine-3-carboxamide], the IC50 is above 10000 nM.
To `N#CC(=CC1CC1)C(=O)N1CCC([C@@H]2CCNc3c(C(N)=O)c(-c4ccc(Oc5ccccc5)cc4)nn32)CC1` [Compound 181, (S)-7-(1-(2-cyano-3-cyclopropylacryloyl)piperidin-4-yl)-2-(4-phenoxyphenyl)-4,5,6,7-tetrahydropyrazolo[1,5-a]pyrimidine-3-carboxamide] belongs 25 nM.
For `C=CC(=O)Nc1cc(C)ccc1C1CCNc2c(C(N)=O)c(-c3ccc(OCC4CC4)cc3)nn21` (stereo not shown) [Compound 148, 7-(2-Acrylamido-4-methylphenyl)-2-(4-(cyclopropylmethoxy)phenyl)-4,5,6,7-tetrahydropyrazolo[1,5-a]pyrimidine-3-carboxamide] the value was 5.6 nM.
For `NC(=O)c1c(-c2ccc(Oc3ccccc3)cc2)nn2c(C3CCNCC3)cc(=O)[nH]c12` [Compound 80, 5-Oxo-2-(4-phenoxyphenyl)-7-(piperidin-4-yl)-4,5-dihydropyrazolo[1,5-a]pyrimidine-3-carboxamide] the value was above 10000 nM.
For the molecule `NC(=O)c1c(-c2ccc(Oc3ccccc3)cc2)nn2c1[nH]c1cc(N)ccc12` [Compound 129], the IC50 was 23 nM.
For `C=CC(=O)N1CC2(CNc3c(C(N)=O)c(-c4ccc(Oc5ccccc5)cc4)nn3C2)C1` [Compound 88, 1-Acryloyl-2′-(4-phenoxyphenyl)-5′,7′-dihydro-4′H-spiro[azetidine-3,6′-pyrazolo[1,5-a]pyrimidine]-3′-carboxamide], the IC50 came to 16 nM.
For `NC(=O)c1c(-c2ccc(Oc3ccccc3)cc2)nn2c1NCC21CN(Cc2ccccc2)C1` [Compound 44, 1-Benzyl-6′-(4-phenoxyphenyl)-1′,2′-dihydrospiro[azetidine-3,3′-imidazo[1,2-b]pyrazole]-7′-carboxamide] the value was 220 nM.
To `NC(=O)c1c(-c2ccc(Oc3ccccc3)cc2)nn2c1NCCC2c1cccc(N)c1` (stereo not shown) [Compound 2, 7-(3-Aminophenyl)-2-(4-phenoxyphenyl)-4,5,6,7-tetrahydropyrazolo [1,5-a]pyrimidine-3-carboxamide] belongs 360 nM; to `NC(=O)c1c(-c2ccc(Oc3ccccc3)cc2)nn2c1NC(=O)C21CCNCC1` [Compound 82, 2-Oxo-6-(4-phenoxyphenyl)-1,2-dihydrospiro[imidazo[1,2-b]pyrazole-3,4′-piperidine]-7-carboxamide], 3100 nM.
As for `CC#CC(=O)N1CC(C2CCNc3c(C(N)=O)c(-c4ccc(Oc5ccc(F)cc5F)cc4)nn32)C1` (stereo not shown) [Compound 189, 7-(1-(But-2-ynoyl)azetidin-3-yl)-2-(4-(2,4-difluorophenoxy)phenyl)-4,5,6,7-tetrahydropyrazolo[1,5-a]pyrimidine-3-carboxamide], the IC50 was 42 nM.
To `C=CC(=O)NCC1CNc2c(C(N)=O)c(-c3ccc(Oc4ccccc4)cc3)nn2C1` (stereo not shown) [Compound 86, 6-(Acrylamidomethyl)-2-(4-phenoxyphenyl)-4,5,6,7-tetrahydropyrazolo[1,5-a]pyrimidine-3-carboxamide] belongs 2.2 nM; to `NC(=O)c1c(-c2ccc(OC3CCOCC3)cc2)nn2c1NCCC2c1ccccc1N` (stereo not shown) [Compound 23, 7-(2-Aminophenyl)-2-(4-(tetrahydro-2H-pyran-4-yloxy)phenyl)-4,5,6,7-tetrahydropyrazolo[1,5-a]pyrimidine-3-carboxamide], 3200 nM; to `NC(=O)c1c(-c2ccc(Oc3ccccc3)cc2)nn2c1NCCC21CNC1` [Compound 118, 2′-(4-phenoxyphenyl)-5′,6′-dihydro-4′H-spiro[azetidine-3,7′-pyrazolo[1,5-a]pyrimidine]-3′-carboxamide], 410 nM.
For `C=CC(=O)N1CC2(CNc3c(C(N)=O)c(-c4ccc(Oc5ccccc5)cc4)nn32)C1` [Compound 46, 1-Acryloyl-6′-(4-phenoxyphenyl)-1′,2′-dihydrospiro[azetidine-3,3′-imidazo[1,2-b]pyrazole]-7′-carboxamide], the IC50 was 5 nM.
Turning to `CC(C)(C)OC(=O)N1CCC(C2CCNc3c(C(N)=O)c(-c4ccc(Oc5ccccc5)cc4)nn32)CC1` (stereo not shown) [Compound 25, 7-(1-(Tert-butoxycarbonyl)piperidin-4-yl)-2-(4-phenoxyphenyl)-4,5,6,7-tetrahydropyrazolo[1,5-a]pyrimidine-3-carboxamide], the IC50 came out at 3100 nM.
For `COCCOc1ccc(-c2nn3c(c2C(N)=O)NCCC3c2ccccc2N)cc1` (stereo not shown) [Compound 21, 7-(2-Aminophenyl)-2-(4-(2-methoxyethoxy)phenyl)-4,5,6,7-tetrahydropyrazolo[1,5-a]pyrimidine-3-carboxamide] the value was above 10000 nM; for `C=CC(=O)Nc1ccccc1C1CCNc2c(C(N)=O)c(-c3ccc(Cl)c(F)c3)nn21` (stereo not shown) [Compound 154, 7-(2-Acrylamidophenyl)-2-(4-chloro-3-fluorophenyl)-4,5,6,7-tetrahydropyrazolo[1,5-a]pyrimidine-3-carboxamide], 1.2 nM; for `CC#CC(=O)N1CC(C2CCNc3c(C(N)=O)c(-c4ccc(Oc5ccccc5)cc4)nn32)C1` (stereo not shown) [Compound 184, 7-(1-(But-2-ynoyl)azetidin-3-yl)-2-(4-phenoxyphenyl)-4,5,6,7-tetrahydropyrazolo[1,5-a]pyrimidine-3-carboxamide], 4.7 nM.
To `C=CC(=O)N1CCCC1C1CCNc2c(C(N)=O)c(-c3ccc(Oc4ccccc4)cc3)nn21` (stereo not shown) [Compound 103, 7-(1-acryloylpyrrolidin-2-yl)-2-(4-phenoxyphenyl)-4,5,6,7-tetrahydropyrazolo[1,5-a]pyrimidine-3-carboxamide] belongs 1.1 nM; to `C=CC(=O)N1CCC2[C@H](CNc3c(C(N)=O)c(-c4ccc(Oc5ccccc5)cc4)nn32)C1` (single isomer, unassigned) [Compound 30b], 16 nM; to `NC(=O)c1c(-c2ccc(Oc3ccccc3)cc2)nn2c1NCCC2c1cccnc1` (stereo not shown) [Compound 101, 2-(4-phenoxyphenyl)-7-(pyridin-3-yl)-4,5,6,7-tetrahydropyrazolo[1,5-a]pyrimidine-3-carboxamide], 550 nM.
Regarding `NC(=O)c1c(-c2ccc(OCc3ccccc3)cc2)nn2c1NCCC2c1ccccc1N` (stereo not shown) [Compound 9, 7-(2-Aminophenyl)-2-(4-(benzyloxy)phenyl)-4,5,6,7-tetrahydro pyrazolo[1,5-a]pyrimidine-3-carboxamide], the IC50 was determined as 3700 nM.
Take `C=CC(=O)Nc1ccc2c(c1)c(=O)[nH]c1c(C(N)=O)c(-c3ccc(Oc4ccccc4)cc3)nn12` [Compound 78, 7-Acrylamido-5-oxo-2-(4-phenoxyphenyl)-4,5-dihydropyrazolo[1,5-a]quinazoline-3-carboxamide]: the IC50 came out at 21 nM.
